Reference: patent publication US20090163450A1, “COMBINATIONS COMPRISING A PROSTAGLANDIN AND USES THEREOF” (priority 2007, published 2009)
“Also recorded” adds a separate entry of the source. Where two headings read alike, the source gives them in different places.

What was measured:
[1] = system: human B52 NSCLC cells xenografted to nude mice; settings: for effect on tumor growth (tumor area): 1st experiment
Method: (§1) B-52 NSCL tumor pieces obtained from in vivo passage, were implanted s.c. in the inguinal region of female nude mice. Treatment was started when the tumors were approximately 25 mm^2 in size. Tumor area was determined by caliper measurements twice weekly.
B-52 tumor pieces obtained from in vivo passage, were implanted s.c. in the inguinal region of female nude mice. Treatment was started when the tumors were approximately 25 mM2 in size. Tumor area was determined by caliper measurements twice weekly.
(§2) Tumor area was determined by caliper measurements.

[2] = system: human B-52 NSCL cancer model, xenografted in nude mice; experiment: 2nd experiment: B-52 NSCL cancer xenograft in nude mice, epothilone with Iloprost and/or O-acetyl salicylic acid; settings: Iloprost 0.2 mg/kg i.v. days 22-26, O-acetyl salicylic acid 60 mg/kg p.o. days 19-29; for effect on tumor growth (tumor area): 2nd experiment (FIG. 1), epothilone 8 mg/kg i.v. once day 24
Method: as §1
The 2nd Experiment was made to evaluate in a human B-52 NSCL cancer model, xenografted in nude mice the effect of: • Iloprost and O-acetyl salicyclic acid alone, • the combination of Iloprost and epothilone, • the combination of O-acetyl salicyclic acid and epothilone, • the combination of Iloprost and O-acetyl salicyclic acid as well as • the combination of Iloprost, O-acetyl salicyclic acid and epothilone.
The study was designed to determine the response of a lung cancer model to a cytotoxic treatment regime with the epothilone derivative in combination with Iloprost, O-acetyl salicylic acid or the combination thereof.
The tumor-inhibiting effect of, O-acetyl salicylic acid (ASS) and iloprost was investigated in the human B-52 NSCL cancer model, xenografted in nude mice.
B-52 tumor pieces obtained from in vivo passage, were implanted s.c. in the inguinal region of female nude mice. Treatment was started when the tumors were approximately 25 mm^2 in size. Tumor area was determined by caliper measurements twice weekly.
as §2

Row | SMILES | effect on tumor growth (tumor area) ([1]; Iloprost 0.2 mg/kg i.v. 1x/day days 27-31, epothilone 7 or 10 mg/kg i.v. 1x day 29) | effect on tumor growth (tumor area) [2] | effect on bodyweight ([2]; 2nd experiment) | effect on tumor growth (tumor area) ([1]; epothilone at the highest dose of 10 mg/kg i.v. 1x day 29) | toxicity ([1]; mouse, in vivo, iv, 10 mg/kg)
1 | CC#CCC(C)[C@H](O)/C=C/[C@@H]1[C@H]2C/C(=C/CCCC(=O)O)C[C@H]2C[C@H]1O (stereo partly drawn) [Iloprost, ((E)-5-{(3aS,4R,5R,6aS)-5-Hydroxy-4-[(E)-(3S,4RS)-3-hydroxy)-4-methyl-1-octen-6-ynyl]perhydropentalen-2-ylidene}valeric acid] | no significant effect on tumor growth | no effects | no effect |  | 
2 | C=CC[C@H]1C(=O)C(C)(C)[C@@H](O)CC(=O)O[C@H](c2ccc3sc(C)nc3c2)C[C@@H]2O[C@]2(C)CCC[C@H](C)[C@@H]1O [epothilone, (1S,3S,7S,10R,11S,12S,16R)-7,11-dihydroxy-3-(2-methyl-benzothiazol-5-yl)-10-(prop-2-en-1-yl)-8,8,12,16-tetramethyl-4,17-dioxabicyclo[14.1.0]heptadecane-5,9-dione] |  | slightly reduced tumor growth; also recorded: effective in growth inhibiting |  | reduced tumor growth | proved to be toxic
